For one series, the system named is RAD54 protein. Conditions: yeast cells, H2O2 170, 1700 and 17,000 ppm for 60 minutes.
For series [1] the following is noted: drafted three tiered IDLHs; cited from earlier work.

Method for RAD54 protein: Yeast cells grown in YPD (for Yeast-extract, Peptone and Dextrose culture medium) was harvested in early saturation phase of growth and distributed into the first row of the microchip (A1 through A3), covered with a plexiglass lid and stored as slurries (10^7 cells) at 4° C. until use. H2O2 was added to experimental wells and deionized water to the control well.
A single time, multiple dose study was done at 170, 1700 and 17,000 ppm for 60 minutes. Y-PER (for Yeast-Protein Extraction Reagent) supplemented with protease inhibitor cocktail was added to the cells and incubated for 20 minutes at room temperature (RT).
The supernatant (cell extract) was transferred using an ultrafine pipette tip to the second row of wells (B1 through B3) and incubated with the colloidal SERS immunosensor for RAD54 detection by incubating for 90 minutes at RT. […]
The spectra were analyzed by multivariate PCA-LDA (principle component analysis and linear discriminant analysis) using the leave-one-out cross validation model. The levels of RAD54 protein were measured using the SERS-linked immunosensor assay and RAD54 levels expressed in response to H2O2 were correlated to EPA 3-tier guideline levels, IDLHs (for Immediately Dangerous to Life and Health concentrations) as determined by the Center for Disease Control and Prevention (CDC).

For `OO` [H2O2, Hydrogen peroxide], in the series with RAD54 protein, the “peak intensity of protein measured at 1390 cm^-1 (carboxylic band, SLISA)” value is given as “dose-dependent increase”. Further, the “increase in RAD54 expression as compared to control (baseline expression by cells with no toxin exposure)” value with RAD54 protein (SLISA and ELISA) is about 4 fold. In series [1], the “IDLH tier II (lethal, long-lasting disabling effect)” value is reported as at most 1000 ppm and the “IDLH tier III (lethal, life-threatening effect or even death)” value is reported as over 1000 ppm.

These data come from patent US10145845B2, “On-chip assay for environmental surveillance” (priority 2015, dated 2018).
